Assays:
[1] = test system: sexually mature female rats; assay: sexually mature female rats, double intravenous treatment, necropsy two weeks later; assay type: in vivo, rat; details: IV twice 24 hours apart, two weeks after, GnRH/hecate 2 x 0.5 mg, GnRH 162 μg then 15 minutes later hecate 337 μg
Source text: Eighteen sexually mature, mixed breed, female rats were randomly assigned to one of six groups containing three rats each. Each group of rats received a double treatment intravenously, as described below. Two weeks after the treatment, the rats were sacrificed and necropsied. The reproductive and endocrine organs were sectioned, weighed, and examined histologically.

[2] = test system: pituitary basophilic (gonadotropic) cells; assay: rat pituitary gland sections in tissue culture, histology after treatment; assay type: cell-based; details: ten hours after treatment, 37° C.; GnRH 5 ng/mL; hecate 50 μM; GnRH 5 ng/mL 15 minutes, wash, then hecate 50 μM; modified GnRH/hecate 50 μM
Experimental: The pituitary gland of an adult female rat was harvested and divided into six sections of approximately equal size. One section was placed in each of six wells containing tissue culture medium at 37° C. A different treatment was applied to each well, as described below. Ten hours after treatment, the tissue from each well was fixed, and the histology of each was examined microscopically.

DU145 cells = assay: in vitro lysis of human prostate cancer cells, Trypan blue exclusion; assay type: cell-based; details: 22 hours; GnRH-hecate 50 μM; free hecate 30 μM; hecate-bLH 90 or 60 μM
Source text: LNCaP FGC and DU145 human prostate cancer cell lines were purchased from the American Type Culture Collection (ATCC, Rockville Md.), ATCC accession numbers CRL 1740 and HTB-81, respectively. The LNCaP FGC adenocarcinoma cell line was originally obtained from a person. LNCaP FGC cells are sensitive to dihydrotestosterone and to estrogens (A+). The DU145 carcinoma was originally isolated from the brain of a person with metastatic carcinoma of the prostate; this cell line is not sensitive to steroid hormones (A−).
Cells were detached from culture flasks, and 1000 cells/well were transferred to 24 well culture plates. The cells were incubated for 24 hours with 10% calf serum. Cells were subsequently incubated without serum for 48 hours. Cells were then incubated for 22 hours with one of the following treatments:
Trypan blue exclusion was used to assess viability of the cells after treatment. […] However, treatment with a lytic peptide alone may not be selective in vivo unless specific cell types are separately stimulated, for example by hormones controlling their activity.

[3] = test system: bovine small luteal cells; assay: in vitro lysis of bovine small luteal cells (Trypan Blue exclusion, lactic dehydrogenase release); assay type: cell-based, cattle; details: 22 hr incubation
Experimental: We studied in vitro lysis of bovine luteal cells with GnRH-hecate conjugate and with hecate-bLH conjugate (SEQ. ID NO. 12). (The bLH component of the conjugate is a 15-mer fragment of the beta chain of luteinizing hormone, SEQ. ID NO. 11). Small luteal cells were collected from cattle corpora lutea post-slaughter.
Small luteal cells in culture were incubated with one of the following treatments for 22 hours, and were then examined for viability using Trypan Blue exclusion and release of lactic dehydrogenase.

bovine granulosa cells = assay: in vitro lysis of bovine granulosa cells; assay type: cell-based; details: hecate alone, versus small luteal cells
Source text: We also studied in vitro lysis of bovine granulosa cells with GnRH-hecate conjugate and with hecate-bLH conjugate. Granulosa cells were isolated from bovine pre-ovulatory follicles. (Granulosa cells are hormonally active cells with numerous LH receptors.) Our experiments with granulosa cells were otherwise generally similar to those described above for Examples 24-31.

## hecate: amphipathic lytic peptide; synthetic peptide analog of melittin (SEQ. ID NO. 2) (FALALKALKKALKKLKKALKKAL) [reference compound]
[1]
  ovarian function / histology: normal ovarian function
[2]
  histology of pituitary tissue after treatment: appeared normal
DU145 cells
  killing of cells (viability): killed by hecate alone
[3]; 1 μM
  cell death of small luteal cells: did not differ significantly from negative control
[3]; 5 μM
  killing of small luteal cells: approximately 50%
[3]; 10 μM
  killing of small luteal cells: Significant killing
Bovine granulosa cells
  susceptibility of granulosa cells to killing: much more susceptible to killing by hecate alone than were the small luteal cells

From patent US8258100B2, “Ligand/lytic peptide methods of use” (Board of Supervisors of Louisiana State University and …, priority 1997, dated 2012)
